Test results as given in ChEMBL document CHEMBL4316596, “Antimicrobial Peptides with High Proteolytic Resistance for Combating Gram-Negative Bacteria” (J Med Chem, 2019).

How the values were obtained:
[1] = tested on: Pseudomonas aeruginosa; experiment: Bactericidal activity against Pseudomonas aeruginosa 25349 clinical isolates incubated for 4 hrs followed by culture spread on agar plates and cultured overnight; type: functional; conditions: Pseudomonas aeruginosa, 25349, 4 h; read-out: MBC>99.9
[2] = tested on: Escherichia coli; experiment: Bactericidal activity against Escherichia coli ATCC 25922 incubated for 4 hrs followed by culture spread on agar plates and cultured overnight in presence of FeCl3; type: functional; conditions: ATCC 25922, 4 h, read-out: MBC>99.9
[3] = tested on: Escherichia coli; experiment: Bactericidal activity against Escherichia coli ATCC 25922 incubated for 4 hrs followed by culture spread on agar plates and cultured overnight in presence of 50% serum albumin; type: functional; conditions: ATCC 25922, 4 h, read-out: MBC>99.9
[4] = tested on: Pseudomonas aeruginosa; experiment: Antimicrobial activity against Pseudomonas aeruginosa ATCC 27853 after 24 hrs by NCCLS-protocol based assay; type: functional; conditions: ATCC 27853, 24 h
[5] = Antimicrobial activity against Salmonella pullorum C7913 after 24 hrs by NCCLS-protocol based assay; type: functional, Salmonella enterica subsp. enterica serovar Pullorum; conditions: Salmonella enterica, C7913, 24 h
[6] = tested on: Escherichia coli; experiment: Bactericidal activity against Escherichia coli UB1005 incubated for 4 hrs followed by culture spread on agar plates and cultured overnight; type: functional; conditions: UB1005, 4 h, read-out: MBC>99.9
[7] = tested on: Pseudomonas aeruginosa; experiment: Antimicrobial activity against Pseudomonas aeruginosa 26305 clinical isolates after 24 hrs by NCCLS-protocol based assay; type: functional; conditions: Pseudomonas aeruginosa, 26305, 24 h
[8] = tested on: Salmonella typhimurium; experiment: Bactericidal activity against Salmonella typhimurium ATCC 14028 incubated for 4 hrs followed by culture spread on agar plates and cultured overnight; type: functional, Salmonella enterica subsp. enterica serovar Typhimurium; conditions: Salmonella enterica, ATCC 14028, 4 h; read-out: MBC>99.9
[9] = tested on: Escherichia coli; experiment: Bactericidal activity against Escherichia coli K88 incubated for 4 hrs followed by culture spread on agar plates and cultured overnight; type: functional; conditions: K88, 4 h, read-out: MBC>99.9
[10] = tested on: Escherichia coli; experiment: Bactericidal activity against Escherichia coli 078 incubated for 4 hrs followed by culture spread on agar plates and cultured overnight; type: functional; conditions: Escherichia coli, 078, 4 h; read-out: MBC>99.9
[11] = tested on: Escherichia coli; experiment: Antimicrobial activity against Escherichia coli K88 after 24 hrs by NCCLS-protocol based assay; type: functional; conditions: K88, 24 h
[12] = tested on: Pseudomonas aeruginosa; experiment: Antimicrobial activity against Pseudomonas aeruginosa PAO1 after 24 hrs by NCCLS-protocol based assay; type: functional; conditions: PAO1, 24 h
[13] = tested on: Escherichia coli; experiment: Bactericidal activity against Escherichia coli ATCC 25922 incubated for 4 hrs followed by culture spread on agar plates and cultured overnight; type: functional; conditions: ATCC 25922, 4 h, read-out: MBC>99.9
[14] = tested on: Pseudomonas aeruginosa; experiment: Antimicrobial activity against Pseudomonas aeruginosa 25349 clinical isolates after 24 hrs by NCCLS-protocol based assay; type: functional; conditions: Pseudomonas aeruginosa, 25349, 24 h
[15] = tested on: Escherichia coli; experiment: Antimicrobial activity against Escherichia coli 078 after 24 hrs by NCCLS-protocol based assay; type: functional; conditions: Escherichia coli, 078, 24 h
[16] = tested on: Pseudomonas aeruginosa; experiment: Bactericidal activity against Pseudomonas aeruginosa PAO1 incubated for 4 hrs followed by culture spread on agar plates and cultured overnight; type: functional; conditions: PAO1, 4 h, read-out: MBC>99.9
[17] = tested on: Escherichia coli; experiment: Bactericidal activity against Escherichia coli ATCC 25922 incubated for 4 hrs followed by culture spread on agar plates and cultured overnight in presence of KCl; type: functional; conditions: ATCC 25922, 4 h, read-out: MBC>99.9
[18] = tested on: Escherichia coli; experiment: Bactericidal activity against Escherichia coli ATCC 25922 incubated for 4 hrs followed by culture spread on agar plates and cultured overnight in presence of MgCl2; type: functional; conditions: ATCC 25922, 4 h, read-out: MBC>99.9
[19] = tested on: Escherichia coli; experiment: Bactericidal activity against Escherichia coli K99 incubated for 4 hrs followed by culture spread on agar plates and cultured overnight; type: functional; conditions: K99, 4 h, read-out: MBC>99.9
[20] = tested on: Klebsiella pneumoniae; experiment: Bactericidal activity against Klebsiella pneumoniae incubated for 4 hrs followed by culture spread on agar plates and cultured overnight; type: functional; conditions: read-out: MBC>99.9
[21] = tested on: Escherichia coli; experiment: Antimicrobial activity against Escherichia coli UB1005 after 24 hrs by NCCLS-protocol based assay; type: functional; conditions: UB1005, 24 h
[22] = tested on: Acinetobacter baumannii; experiment: Bactericidal activity against Acinetobacter baumannii incubated for 4 hrs followed by culture spread on agar plates and cultured overnight; type: functional; conditions: read-out: MBC>99.9
[23] = tested on: Salmonella typhimurium; experiment: Bactericidal activity against Salmonella typhimurium C7731 incubated for 4 hrs followed by culture spread on agar plates and cultured overnight; type: functional, Salmonella enterica subsp. enterica serovar Typhimurium; conditions: Salmonella enterica, C7731, 4 h; read-out: MBC>99.9
[24] = tested on: Salmonella typhimurium; experiment: Antimicrobial activity against Salmonella typhimurium C7731 after 24 hrs by NCCLS-protocol based assay; type: functional, Salmonella enterica subsp. enterica serovar Typhimurium; conditions: Salmonella enterica, C7731, 24 h
[25] = tested on: Klebsiella pneumoniae; experiment: Antimicrobial activity against Klebsiella pneumoniae after 24 hrs by NCCLS-protocol based assay; type: functional
[26] = tested on: Escherichia coli; experiment: Bactericidal activity against Escherichia coli ATCC 25922 incubated for 4 hrs followed by culture spread on agar plates and cultured overnight in presence of NH4Cl; type: functional; conditions: ATCC 25922, 4 h, read-out: MBC>99.9
[27] = Bactericidal activity against Salmonella pullorum C7913 incubated for 4 hrs followed by culture spread on agar plates and cultured overnight; type: functional, Salmonella enterica subsp. enterica serovar Pullorum; conditions: Salmonella enterica, C7913, 4 h; read-out: MBC>99.9
[28] = tested on: Salmonella typhimurium; experiment: Antimicrobial activity against Salmonella typhimurium ATCC 14028 after 24 hrs by NCCLS-protocol based assay; type: functional, Salmonella enterica subsp. enterica serovar Typhimurium; conditions: Salmonella enterica, ATCC 14028, 24 h
[29] = tested on: Escherichia coli; experiment: Bactericidal activity against Escherichia coli ATCC 25922 incubated for 4 hrs followed by culture spread on agar plates and cultured overnight in presence of 25% serum albumin; type: functional; conditions: ATCC 25922, 4 h, read-out: MBC>99.9
[30] = tested on: Escherichia coli; experiment: Antimicrobial activity against Escherichia coli ATCC 25922 after 24 hrs by NCCLS-protocol based assay; type: functional; conditions: ATCC 25922, 24 h
[31] = tested on: Escherichia coli; experiment: Bactericidal activity against Escherichia coli ATCC 25922 incubated for 4 hrs followed by culture spread on agar plates and cultured overnight in presence of ZnCl2; type: functional; conditions: ATCC 25922, 4 h, read-out: MBC>99.9
[32] = tested on: Pseudomonas aeruginosa; experiment: Bactericidal activity against Pseudomonas aeruginosa ATCC 27853 incubated for 4 hrs followed by culture spread on agar plates and cultured overnight; type: functional; conditions: ATCC 27853, 4 h, read-out: MBC>99.9
[33] = tested on: Escherichia coli; experiment: Antimicrobial activity against Escherichia coli K99 after 24 hrs by NCCLS-protocol based assay; type: functional; conditions: K99, 24 h
[34] = tested on: Acinetobacter baumannii; experiment: Antimicrobial activity against Acinetobacter baumannii after 24 hrs by NCCLS-protocol based assay; type: functional
[35] = tested on: Pseudomonas aeruginosa; experiment: Bactericidal activity against Pseudomonas aeruginosa CICC 21625 clinical isolates incubated for 4 hrs followed by culture spread on agar plates and cultured overnight; type: functional; conditions: CICC 21625, 4 h, read-out: MBC>99.9
[36] = tested on: Pseudomonas aeruginosa; experiment: Antimicrobial activity against Pseudomonas aeruginosa CICC 21625 clinical isolates after 24 hrs by NCCLS-protocol based assay; type: functional; conditions: CICC 21625, 24 h
[37] = tested on: Pseudomonas aeruginosa; experiment: Bactericidal activity against Pseudomonas aeruginosa CICC 21630 clinical isolates incubated for 4 hrs followed by culture spread on agar plates and cultured overnight; type: functional; conditions: CICC 21630, 4 h, read-out: MBC>99.9
[38] = tested on: Escherichia coli; experiment: Bactericidal activity against Escherichia coli ATCC 25922 incubated for 4 hrs followed by culture spread on agar plates and cultured overnight in presence of 12.5% serum albumin; type: functional; conditions: ATCC 25922, 4 h, read-out: MBC>99.9
[39] = tested on: Pseudomonas aeruginosa; experiment: Antimicrobial activity against Pseudomonas aeruginosa CICC 21630 clinical isolates after 24 hrs by NCCLS-protocol based assay; type: functional; conditions: CICC 21630, 24 h
[40] = tested on: Pseudomonas aeruginosa; experiment: Bactericidal activity against Pseudomonas aeruginosa 26305 clinical isolates incubated for 4 hrs followed by culture spread on agar plates and cultured overnight; type: functional; conditions: Pseudomonas aeruginosa, 26305, 4 h; read-out: MBC>99.9
[41] = tested on: Escherichia coli; experiment: Bactericidal activity against Escherichia coli ATCC 25922 incubated for 4 hrs followed by culture spread on agar plates and cultured overnight in presence of NaCl; type: functional; conditions: ATCC 25922, 4 h, read-out: MBC>99.9
[42] = tested on: Escherichia coli; experiment: Bactericidal activity against Escherichia coli ATCC 25922 incubated for 4 hrs followed by culture spread on agar plates and cultured overnight in presence of CaCl2; type: functional; conditions: ATCC 25922, 4 h, read-out: MBC>99.9

H-LRPLLRPLLRPLLRPLLRPLLRPL-NH2 showed an MBC [1] of 32 µM, an MBC [2] of 4 µM and an MBC [3] of 32 µM. The MIC95 [4] was 8 µM, the MIC95 [5] was 2 µM and the MBC [6] was 4 µM. It also gave an MIC95 [7] of 32 µM, an MBC [8] of 8 µM and an MBC [9] of 4 µM. For the same substance, the MBC [10] was 2 µM, the MIC95 [11] was 2 µM and the MIC95 [12] was 4 µM. It also gave an MBC [13] of 2 µM, an MIC95 [14] of 32 µM and an MIC95 [15] of 2 µM. It also gave an MBC [16] of 8 µM, an MBC [17] of 2 µM and an MBC [18] of 4 µM. For the same substance, the MBC [19] was 4 µM, the MBC [20] was 8 µM and the MIC95 [21] was 2 µM. The MBC [22] was 4 µM, the MBC [23] was 8 µM and the MIC95 [24] was 2 µM. It also gave an MIC95 [25] of 8 µM, an MBC [26] of 2 µM and an MBC [27] of 4 µM. It also gave an MIC95 [28] of 4 µM, an MBC [29] of 16 µM and an MIC95 [30] of 2 µM. The MBC [31] was 2 µM, the MBC [32] was 16 µM and the MIC95 [33] was 2 µM. For the same substance, the MIC95 [34] was 2 µM, the MBC [35] was 32 µM and the MIC95 [36] was 32 µM. For the same substance, the MBC [37] was 16 µM, the MBC [38] was 8 µM and the MIC95 [39] was 8 µM. For the same substance, the MBC [40] was 32 µM, the MBC [41] was 4 µM and the MBC [42] was > 128 µM.
